Patent US20090074790A1, “Methods for measuring transforming growth factor beta (TGF-beta) receptor signaling activity and uses thereof” (priority 2004, published 2009)

Tested on: human keratinocytes
Assay: Growth of human keratinocytes (HKc/HPV16), TGFβ-induced growth arrest
Conditions: read-out: IC50 of growth inhibition of human keratinocytes, dose-dependent

“TGFβ: Recombinant human TGFβ1 purchased from Austral Biologicals” was tested, and the IC50 was ~5 pM.
